Test results taken from PMC8397291 (2021).

How the values were obtained:
Experiment in all cases: competitive native PAGE, 2a staining
Conditions in all cases: 100 mM KCl; TBE; 100 μM competitor with 20 μM c-MYC Pu22; 5 μM 2a
[1] = test system: s.c. ds-DNA (DNA, duplex) CAATCGGATCGAATTCGATCCGATTG
[2] = test system: TBA (DNA, G4) GGTTGGTGTGGTTGG
[3] = test system: GC-rich ds-DNA (DNA, duplex) TGAGGGTGGGTAGGGTGGGTAA/TTACCCACCCTACCCACCCTCA

Measured: binding

CCN(CC)c1ccc2cc(C(=N)N)c(=O)oc2c1
no: all assays above
